Assay results published in article PMC11873939, “Target Identification with Live-Cell Photoaffinity Labeling and Mechanism of Action Elucidation of ARN23765, a Highly Potent CFTR Corrector” (Journal of Medicinal Chemistry, 2025).

Assays:
Type in all cases: cell-based
[1] = molecular target: T1, F508del-CFTR (Homo sapiens, UniProt P13569, DEL508-508); test: HS-YFP functional assay in CFBE41o- cells stably overexpressing F508del-CFTR; settings: 24 h treatment
T1 construct: expressed in transfected cells
Procedure: These analogues were tested in the functional assay on the human bronchial epithelia-derived cell line, CFBE41o-, which stably overexpresses F508del-CFTR and the halide-sensitive yellow fluorescent protein (HS-YFP).[31] […]
HS-YFP-based assay for CFTR activity
Twenty-four hours after seeding on 96-well plates, CFBE41o- cells stably over-expressing F508del-CFTR and the HS-YFP were treated with test compounds at different concentrations in the 3 nM-10 µM range.1 Cells treated with vehicle alone (DMSO) and with ARN23765, respectively, served as negative and positive controls. The following day, cells were washed with PBS containing (in mM) 137 NaCl, 2.7 KCl, 8.1 Na2HPO4, 1.5 KH2PO4, 1.0 CaCl2, and 0.5 MgCl2. Cells were then incubated for 25 min with […] of PBS plus forskolin (20 µM) and VX-770 (1 µM) to maximally stimulate F508del-CFTR. Cells were then transferred to a microplate reader (FluoStar Galaxy; BMG Labtech, Offenburg, Germany) for CFTR activity determination. The plate reader was equipped with high-quality excitation (HQ500/20X: 500 ± 10 nm) and emission (HQ535/30M: 535 ± 15 nm) filters for YFP (Chroma Technology). Each assay comprised a continuous 14 s fluorescence reading, 2 s before and 12 s after injection of […] of an iodide-containing solution (PBS with Cl- replaced by I-; final I- concentration […]). Data were normalized to the initial background-subtracted fluorescence. To determine I- influx rate, the final 11 s of the data for each well were fitted with an exponential function to extrapolate initial slope (dF/dt). Reproducibility of results was confirmed by performing three independent experiments. […]

[2] = molecular target: CFTR fragments containing MSD2 (Homo sapiens, UniProt P13569); test: CFTR fragment stability analysis (WB) in transfected HEK293 cells; settings: HEK293, 24 h incubation, 10 nM
Procedure: (§1) CFTR correctors are expected to stabilize the expression of the protein domains with which they interact, resulting in an increased amount of protein.[35]−[37] To determinate the portion of CFTR with which ARN23765 interacts, constructs coding for CFTR fragments of different lengths (Figure 3A) were transfected in HEK293 cells, and the effect of 24 h incubation with ARN23765 on the expression of the truncated proteins was analyzed with WB. […] To better study ARN23765’s stabilization of MSD1 vs MSD2, we analyzed their expression in transfected HEK-293 cells over 6 h of cycloheximide treatment.
(§2) Constructs coding for MSD1 (residues 1–380), A52-tagged MSD2 (residues 837–1196) and MSD2-NBD2 (residues 850–1480) were transfected in HEK293 cells using JetPEI reagent (101000053, Polyplus Technology). After 18 h transfection, cells were treated for 24 h with either 0.2% DMSO, VX-661 (3 μM), ARN23765 (10 nM) or corr-4a (10 μM). Cell lysates were analyzed by WB, as described in the dedicated paragraph.

[3] = molecular target: CFTR fragments containing MSD1 (Homo sapiens, UniProt P13569); test: as above; settings: HEK293, 24 h incubation, 10 nM
Procedure: as §1, §2

T1 sequence (P13569 with tags, fused parts or gaps DEL508-508): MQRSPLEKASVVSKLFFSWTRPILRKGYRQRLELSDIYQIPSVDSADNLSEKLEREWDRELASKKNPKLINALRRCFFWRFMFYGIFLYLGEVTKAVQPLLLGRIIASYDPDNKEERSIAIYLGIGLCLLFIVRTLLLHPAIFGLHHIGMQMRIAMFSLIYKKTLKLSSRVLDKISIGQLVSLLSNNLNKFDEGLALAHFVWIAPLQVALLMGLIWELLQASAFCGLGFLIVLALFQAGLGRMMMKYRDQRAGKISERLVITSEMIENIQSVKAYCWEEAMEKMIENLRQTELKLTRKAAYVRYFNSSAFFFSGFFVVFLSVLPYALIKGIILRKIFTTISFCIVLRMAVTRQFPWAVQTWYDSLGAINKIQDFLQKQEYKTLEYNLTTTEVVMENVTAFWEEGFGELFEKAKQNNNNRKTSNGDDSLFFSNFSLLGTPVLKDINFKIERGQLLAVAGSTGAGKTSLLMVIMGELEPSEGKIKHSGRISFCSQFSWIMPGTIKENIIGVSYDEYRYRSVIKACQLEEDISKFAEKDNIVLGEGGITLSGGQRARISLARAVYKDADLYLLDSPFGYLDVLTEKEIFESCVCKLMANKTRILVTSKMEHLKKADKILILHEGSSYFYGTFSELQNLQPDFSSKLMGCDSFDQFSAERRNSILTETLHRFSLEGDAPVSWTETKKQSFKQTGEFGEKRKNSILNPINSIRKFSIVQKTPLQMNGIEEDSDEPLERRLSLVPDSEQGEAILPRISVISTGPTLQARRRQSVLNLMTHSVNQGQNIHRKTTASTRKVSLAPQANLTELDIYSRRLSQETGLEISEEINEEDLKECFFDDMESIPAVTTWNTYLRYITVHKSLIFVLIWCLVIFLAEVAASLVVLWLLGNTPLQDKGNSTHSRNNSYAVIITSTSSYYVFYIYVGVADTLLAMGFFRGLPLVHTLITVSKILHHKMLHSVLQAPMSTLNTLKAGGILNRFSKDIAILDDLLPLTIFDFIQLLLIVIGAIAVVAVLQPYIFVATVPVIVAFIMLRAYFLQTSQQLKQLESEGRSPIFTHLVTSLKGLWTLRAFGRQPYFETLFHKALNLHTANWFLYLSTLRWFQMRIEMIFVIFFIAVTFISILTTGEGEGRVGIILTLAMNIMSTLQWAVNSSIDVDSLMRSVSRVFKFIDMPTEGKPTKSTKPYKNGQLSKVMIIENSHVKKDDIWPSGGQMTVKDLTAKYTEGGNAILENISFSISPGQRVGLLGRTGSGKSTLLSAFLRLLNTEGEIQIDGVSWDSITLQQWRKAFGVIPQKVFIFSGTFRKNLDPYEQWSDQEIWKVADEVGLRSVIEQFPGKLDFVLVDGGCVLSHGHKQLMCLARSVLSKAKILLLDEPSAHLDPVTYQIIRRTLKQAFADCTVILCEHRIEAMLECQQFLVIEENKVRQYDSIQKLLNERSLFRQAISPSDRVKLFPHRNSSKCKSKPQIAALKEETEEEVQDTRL
CFTR fragments containing MSD1, sequence (P13569 1-380 limits assumed): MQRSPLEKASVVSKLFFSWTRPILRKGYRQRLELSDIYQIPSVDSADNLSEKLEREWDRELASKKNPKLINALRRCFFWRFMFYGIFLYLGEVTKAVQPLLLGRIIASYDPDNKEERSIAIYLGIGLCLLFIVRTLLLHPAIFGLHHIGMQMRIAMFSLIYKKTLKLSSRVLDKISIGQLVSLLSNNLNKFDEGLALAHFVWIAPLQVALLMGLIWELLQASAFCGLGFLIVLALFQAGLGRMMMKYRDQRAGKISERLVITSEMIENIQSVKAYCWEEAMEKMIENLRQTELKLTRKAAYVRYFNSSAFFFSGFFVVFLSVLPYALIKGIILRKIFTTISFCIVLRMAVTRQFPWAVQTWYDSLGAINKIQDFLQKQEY
CFTR fragments containing MSD2, sequence (P13569 850-1196 limits assumed): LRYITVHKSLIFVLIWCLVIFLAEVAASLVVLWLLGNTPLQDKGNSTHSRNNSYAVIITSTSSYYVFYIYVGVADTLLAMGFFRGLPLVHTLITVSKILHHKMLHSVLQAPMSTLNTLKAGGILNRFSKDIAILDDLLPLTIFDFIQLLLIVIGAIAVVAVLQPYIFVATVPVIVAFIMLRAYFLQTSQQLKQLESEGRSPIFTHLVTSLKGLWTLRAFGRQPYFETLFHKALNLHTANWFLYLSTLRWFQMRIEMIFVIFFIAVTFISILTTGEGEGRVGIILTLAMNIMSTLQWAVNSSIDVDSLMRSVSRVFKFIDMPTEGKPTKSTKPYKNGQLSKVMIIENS

EC50 ([1]; 3 nM-10 µM range): < 3 nM | HS-YFP assay in CFBE41o- cells Emax ([1]; values normalized to DMSO-incubated cells): 2.7 | Expression of CFTR fragments containing MSD2 (WB) [2]: no difference in expression | Correction of CFTR with R domain deleted (delR construct, WB) [3]: still corrected | Expression of CFTR fragments containing MSD1 (WB) [3]: increased expression
Compound: CN(C(=O)c1cccc(-n2nc(C(F)(F)F)c3c2[C@@H](Oc2ccc(C(=O)O)cc2)CCC3)c1)c1ccc2c(c1)OC(F)(F)O2 [ARN23765]
